Measured values: US20170224775A1, “Lv PEPTIDE, ANTI-Lv ANTIBODY AND METHODS THEREOF” (The Texas A&M University System, priority 2016, published 2017)

What was measured:
Assay type in all cases: cell-based, chicken
L-VGCC = experiment: Whole-cell patch-clamp recordings of L-VGCC currents in cultured embryonic cardiomyocytes
Protocol: (§1) Fertilized eggs (Gallus gallus, Single Comb White Leghorns) were obtained from the Poultry Science Department, Texas A&M University (College Station, Tex., USA). All chicken embryos were maintained at 39° C.±0.5° C. Chicken hearts were harvested at embryonic day 12 (E12) and ventricular cardiomyocytes were dissociated and cultured on poly-D-lysine/collagen double-coated dishes (for biochemical and molecular biological assays) or coverslips (for electrophysiological recordings) as described previously. All cultures were maintained at 39° C.±0.5° C. with 5% CO2. Cells were cultured for 2-3 days and subjected to treatments with vehicle, peptide Lv, or pharmaceutical blockers prior to Western blotting or electrophysiological recordings.
Ventricular cardiomyocytes were cultured for two days. Whole-cell patch-clamp recordings of L-VGCC currents were carried out from spontaneously pulsing cardiomyocytes. The external solution was (in mM): 145 TEACl, 9 BaCl2, 0.5 MgCl2, 5.5 glucose, 0.1 NiCl2, and 5 HEPES, pH 7.4 with CsOH or TEAOH. The pipette solution was (in mM): 125 Cs acetate, 20 CsCl, 3MgCl2, 10 EGTA, and 5 HEPES, pH 7.4 adjusted with CsOH. Currents were recorded at room temperature using an A-M Systems model 2400 patch-clamp amplifier (Sequim, Wash., USA). Signals were low-pass filtered at 2 kHz and digitized at 5 kHz with Digidata 1440A interface and pCLAMP 10.0 software (Molecular Devices, Sunnyvale, Calif., USA). Cardiomyocytes were held at −40 mV, and Ba^2+ currents were recorded immediately after whole-cell patches were formed by gentle suctions. Current-voltage (I-V) relationships were elicited from a holding potential at −40 mV using 200 ms steps (5 seconds between steps) over a range from −60 to +60 mV in 10 mV increments. The current densities were calculated by dividing the current amplitudes (pA) by membrane capacitances (pF).

ERK and PKC = experiment: Western blot of pERK and pPKCα/β (downstream of VEGFR2) in cultured cardiomyocytes; details: inhibitor with peptide Lv
Protocol: as §1
(§2) Treated or control cells were washed and lysed in radioimmunoprecipitation assay (RIPA) buffer, and proteins were denatured by mixing with 2× Laemmli sample buffer for 5 minutes at 95° C. Samples were separated on 10% sodium dodecyl sulfate-polyacrylamide gel electrophoresis (SDS-PAGE) gels and transferred to nitrocellulose membranes. The primary antibodies used in this study were pan L-VGCCα1, ERK1/2, di-phosphorylated ERK1/2, actin, phosphorylated PKC α/βII subunit, phosphorylated tyrosine, VEGFR2, and phosphorylated VEGFR2 at tyr1054/1059. […]

VEGFR2 = experiment: Western blot of VEGFR2 autophosphorylation (pVEGFR2-tyr1054/1059) in cultured embryonic cardiomyocytes; details: DMH4 in presence of peptide Lv
Protocol: as §1, §2

COc1cccc(-c2cc(=O)c3ccccc3o2)c1N [PD98059]
peptide Lv augmentation of L-VGCC currents (L-VGCC; PD98059 50 μM): decreased the peptide Lv augmentation of L-VGCC currents

CN=c1nc(-c2ccccc2)n(-c2ccccc2)s1 [SCH202676]
inhibition of effects of peptide Lv on pERK and pPKCα/β (ERK and PKC): did not inhibit the effects of peptide Lv on pERK and pPKCα/β

COc1ccc2c(c[n+](C)c3c4cc5c(cc4ccc23)OCO5)c1OC [chelerythrine]
peptide Lv augmentation of L-VGCC currents (L-VGCC; chelerythrine 2 μM): decreased the peptide Lv augmentation of L-VGCC currents

DMH4
inhibition of peptide Lv-enhanced VEGFR2 phosphorylation (VEGFR2): sensitive to DMH4 inhibition
block of VEGFa augmentation of L-VGCCs (L-VGCC; DMH4 5 μM with VEGFa): blocked the augmentation of L-VGCCs by VEGFa
L-VGCCs, inhibitor by itself (L-VGCC; DMH4 alone, without peptide Lv): did not affect the LVGCCs
block of peptide Lv augmentation of L-VGCC currents (L-VGCC; DMH4 together with peptide Lv): able to block the augmentation effect of peptide Lv on L-VGCC currents
